Results: PubChem BioAssay AID1963847 (Molecular Pharmacology Branch, DTP, NCI, 2024)

Test system: 415267-285-R-J2-PDC complex spheroid viability
Experiment: Anticancer human tumor 415267-285-R-J2-PDC patient-derived breast carcinoma cell line growth inhibition [POLQ]
Settings: for IC50: curve of first compound; for viability, T/C: stronger effect = lower value
Description: Multicellular complex tumor spheroid response to Polymerase (POL) inhibitors (novobiocin, ART-558, RP6685) in combination with a variety of drugs and investigational agents in selected tumor cell lines
The POL inhibitors (novobiocin, ART-558, and RP6685) were evaluated both individually and in combination with standard of care and investigational anticancer small molecules within a complex spheroid model of solid tumors. . Complex spheroids include a stromal component modeled by human endothelial cells (HUVEC) and fibroblasts modeled by human mesenchymal stem cells (MSCs). The concentration ranges selected for each drug and investigational agent were based upon clinically achievable concentrations if the clinical Cmax of the agent was known.
Compounds. The drugs and investigational agents: novobiocin (NSC847541), ART-558 (NSC835418), RP-6685 (NSC848927), peposertib (NSC802822), ceralasertib (NSC780249), elimusertib (NSC800525), camonsertib (NSC841442), AZD-1390 (NSC803789), olaparib (NSC753686), talazoparib (NSC767125), rucaparib (NSC756644), sotorasib (NSC818433), MRTX-1133 (NSC836407), SN-38 (NSC673596), topotecan (NSC609699), epotoside (NSC141540), doxorubicin (NSC123127), gemcitabine (NSC613327), 5-fluorouracil (NSC19893), paclitaxel (NSC125973), vemurafenib (NSC761431), MSA-2 (NSC828583), SN-011 (NSC837082), adavosertib (NSC754352), prexasertib (NSC758257), carboplatin (NSC241240) and oxaliplatin (NSC266046), were obtained from the National Cancer Institute (NCI) Developmental Therapeutics Program Chemical Repository (21). The FDA-approved anticancer drug set is available from the Developmental Therapeutics Program at https://dtp.cancer.gov/organization/dscb/obtaining/. […] The stock solutions were prepared in dimethyl sulfoxide (DMSO, Sigma-Aldrich, St. Louis, MO, cat. D2650), except for the platinum compounds which were prepared in saline (Quality Biological, Gaithersburg, MD, cat. 114-055-101), at 800-fold the tested concentration and stored at -70 degrees C prior to their use. All drugs and investigational agents were tested over a range starting from a high concentration at or near the clinical Cmax and decreasing in half-log increments. If the clinical Cmax for an agent had not been determined, the highest concentration tested was 10 microM, except for SN-38, which was tested at a high concentration of 1 microM.
Cell Culture. All cells were maintained in an incubator at 37 degrees C and 5% CO2 with 95% humidity. The PDC lines were cultured according to standard operating procedures established by the NCI PDMR (https://pdmr.cancer.gov). Table 3 of the manuscript, lists the cell lines along with the number of the three cell types plated to form the mct-spheroids and media for tumor cell growth. After thawing, all PDC lines, except 997537-175-T-J1-PDC and 415267-285-R-J2-PDC, were cultured in Matrigel-coated flasks prepared with a working solution of 1X Ham's F-12 nutrient mix, without supplementation (Thermo Fisher Scientific, cat. 11765054), 100 U/mL penicillin-streptomycin (Thermo Fisher Scientific, cat. 15140122), and 2.5% Matrigel (Corning Inc., Corning, NY, cat. 354248) for the first three passages. The two PDC lines 997537-175-T-J1-PDC and 415267-285-R-J2-PDC were cultured on uncoated flasks. The 857933-349-R-J2-PDC line was cultured in 6C/Colon 1B media containing advanced DMEM/F-12 (Thermo Fisher Scientific, cat. 12634028), 10 mM HEPES (Thermo Fisher Scientific, cat. 15630080), 1X GlutaMAX supplement (Thermo Fisher Scientific, cat. 35050061), 0.1 mg/mL primocin (InvivoGen, San Diego, CA, cat. ant-pm-2), 10% defined fetal bovine serum, heat inactivated (HyClone Laboratories Inc., Logan, UT, cat. SH30070.03HI), 50% L-WRN conditioned media (ATCC, cat. CRL-3276), 1.25 mM N-Acetyl-L-cysteine (Sigma-Aldrich, cat. A9165), 10 mM nicotinamide (Sigma-Aldrich, cat. N0636), 1X B-27 supplement (Thermo Fisher Scientific, cat. 17504044), 1X N-2 supplement (Thermo Fisher Scientific, cat. […]

[1] = second compound 0.0316 µM, first compound 0.0316 µM
[2] = second compound 0.0316 µM, first compound 0.1 µM
[3] = second compound 0.0316 µM, first compound 0.316 µM
[4] = second compound 0.0316 µM, first compound 1 µM
[5] = second compound 0.0316 µM, first compound 3.16 µM
[6] = second compound 0.0316 µM, first compound 10 µM
[7] = second compound 0.1 µM, first compound 0.0316 µM
[8] = second compound 0.1 µM, first compound 0.1 µM
[9] = second compound 0.1 µM, first compound 0.316 µM
[10] = second compound 0.1 µM, first compound 1 µM
[11] = second compound 0.1 µM, first compound 3.16 µM
[12] = second compound 0.1 µM, first compound 10 µM
[13] = second compound 0.316 µM, first compound 0.0316 µM
[14] = second compound 0.316 µM, first compound 0.1 µM
[15] = second compound 0.316 µM, first compound 0.316 µM
[16] = second compound 0.316 µM, first compound 1 µM
[17] = second compound 0.316 µM, first compound 3.16 µM
[18] = second compound 0.316 µM, first compound 10 µM
[19] = second compound 1 µM, first compound 0.0316 µM
[20] = second compound 1 µM, first compound 0.1 µM
[21] = second compound 1 µM, first compound 0.316 µM
[22] = second compound 1 µM, first compound 1 µM
[23] = second compound 1 µM, first compound 3.16 µM
[24] = second compound 1 µM, first compound 10 µM
[25] = second compound 3.16 µM, first compound 0.0316 µM
[26] = second compound 3.16 µM, first compound 0.1 µM
[27] = second compound 3.16 µM, first compound 0.316 µM
[28] = second compound 3.16 µM, first compound 1 µM
[29] = second compound 3.16 µM, first compound 3.16 µM
[30] = second compound 3.16 µM, first compound 10 µM
[31] = second compound 10 µM, first compound 0.0316 µM
[32] = second compound 10 µM, first compound 0.1 µM
[33] = second compound 10 µM, first compound 0.316 µM
[34] = second compound 10 µM, first compound 1 µM
[35] = second compound 10 µM, first compound 3.16 µM
[36] = second compound 10 µM, first compound 10 µM
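Further: spheroids exposed to compounds for one week before readout.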
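Wherever viability, T/C is given: luminescence used as stand-in measure of viable cells; 100% = DMSO vehicle control viability.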

## CC1COCCN1c1cc(-c2ccnn2C)c2ccnc(-c3ccn[nH]3)c2n1 (stereo unspecified) + Nc1ccc(C#CCN(C(=O)Cc2ncc(C(F)(F)F)cc2C(F)(F)F)c2ccc(F)cc2)nn1
Second compound 0.0316 µM
  IC50: 42.7 nM
Second compound 0.1 µM
  IC50: 40.2 nM
Second compound 0.316 µM
  IC50: 40 nM
Second compound 1 µM
  IC50: 36.9 nM
Second compound 3.16 µM
  IC50: 32.6 nM
Second compound 10 µM
  IC50: < 31.6 nM
[1]
  viability, T/C: 63.7%
[2]
  viability, T/C: 11.2%
[3]
  viability, T/C: 5.02%
[4]
  viability, T/C: 3.87%
[5]
  viability, T/C: 4.17%
[6]
  viability, T/C: 3.9%
[7]
  viability, T/C: 60.3%
[8]
  viability, T/C: 10.8%
[9]
  viability, T/C: 4.23%
[10]
  viability, T/C: 3.18%
[11]
  viability, T/C: 4.26%
[12]
  viability, T/C: 3.58%
[13]
  viability, T/C: 60%
[14]
  viability, T/C: 11.4%
[15]
  viability, T/C: 4.5%
[16]
  viability, T/C: 3.99%
[17]
  viability, T/C: 3.82%
[18]
  viability, T/C: 4%
[19]
  viability, T/C: 56.4%
[20]
  viability, T/C: 8.91%
[21]
  viability, T/C: 4.69%
[22]
  viability, T/C: 3.73%
[23]
  viability, T/C: 3.7%
[24]
  viability, T/C: 3.28%
[25]
  viability, T/C: 51.2%
[26]
  viability, T/C: 9.4%
[27]
  viability, T/C: 5.57%
[28]
  viability, T/C: 3.36%
[29]
  viability, T/C: 3.4%
[30]
  viability, T/C: 4.22%
[31]
  viability, T/C: 42.1%
[32]
  viability, T/C: 10.7%
[33]
  viability, T/C: 5.92%
[34]
  viability, T/C: 3.97%
[35]
  viability, T/C: 3.84%
[36]
  viability, T/C: 4.9%

## COc1cc(C2c3cc4c(cc3C(OC3OC5COC(C)OC5C(O)C3O)C3COC(=O)C23)OCO4)cc(OC)c1O (stereo unspecified) + Cc1cccc(N(C)C(=O)C2C(O)CCN2c2nc(C)cc(C(F)(F)F)c2C#N)c1
Second compound 0.0316 µM
  IC50: 136 nM
Second compound 0.1 µM
  IC50: 126 nM
Second compound 0.316 µM
  IC50: 107 nM
Second compound 1 µM
  IC50: 125 nM
Second compound 3.16 µM
  IC50: 103 nM
Second compound 10 µM
  IC50: 89.9 nM
[1]
  viability, T/C: 96%
[2]
  viability, T/C: 64.5%
[3]
  viability, T/C: 10.3%
[4]
  viability, T/C: 6.03%
[5]
  viability, T/C: 5.96%
[6]
  viability, T/C: 6.13%
[7]
  viability, T/C: 83.3%
[8]
  viability, T/C: 58.7%
[9]
  viability, T/C: 15%
[10]
  viability, T/C: 5.93%
[11]
  viability, T/C: 6.54%
[12]
  viability, T/C: 7.34%
[13]
  viability, T/C: 96.4%
[14]
  viability, T/C: 52.3%
[15]
  viability, T/C: 14.2%
[16]
  viability, T/C: 7.66%
[17]
  viability, T/C: 5.87%
[18]
  viability, T/C: 5.74%
[19]
  viability, T/C: 91.3%
[20]
  viability, T/C: 58.8%
[21]
  viability, T/C: 13.1%
[22]
  viability, T/C: 6.58%
[23]
  viability, T/C: 4.68%
[24]
  viability, T/C: 6.56%
[25]
  viability, T/C: 93.7%
[26]
  viability, T/C: 50.9%
[27]
  viability, T/C: 10.1%
[28]
  viability, T/C: 7.37%
[29]
  viability, T/C: 5.2%
[30]
  viability, T/C: 6.34%
[31]
  viability, T/C: 79.7%
[32]
  viability, T/C: 47%
[33]
  viability, T/C: 11%
[34]
  viability, T/C: 7.78%
[35]
  viability, T/C: 5.72%
[36]
  viability, T/C: 5.96%

## COc1cc(C2c3cc4c(cc3C(OC3OC5COC(C)OC5C(O)C3O)C3COC(=O)C23)OCO4)cc(OC)c1O (stereo unspecified) + Nc1ccc(C#CCN(C(=O)Cc2ncc(C(F)(F)F)cc2C(F)(F)F)c2ccc(F)cc2)nn1
Second compound 0.0316 µM
  IC50: 193 nM
Second compound 0.1 µM
  IC50: 193 nM
Second compound 0.316 µM
  IC50: 194 nM
Second compound 1 µM
  IC50: 169 nM
Second compound 3.16 µM
  IC50: 175 nM
Second compound 10 µM
  IC50: 158 nM
[1]
  viability, T/C: 93.4%
[2]
  viability, T/C: 91.5%
[3]
  viability, T/C: 19%
[4]
  viability, T/C: 6.3%
[5]
  viability, T/C: 4.79%
[6]
  viability, T/C: 4.39%
[7]
  viability, T/C: 106%
[8]
  viability, T/C: 102%
[9]
  viability, T/C: 11.6%
[10]
  viability, T/C: 6.09%
[11]
  viability, T/C: 4.34%
[12]
  viability, T/C: 4.16%
[13]
  viability, T/C: 107%
[14]
  viability, T/C: 97.8%
[15]
  viability, T/C: 14.4%
[16]
  viability, T/C: 6.8%
[17]
  viability, T/C: 5.09%
[18]
  viability, T/C: 4.49%
[19]
  viability, T/C: 106%
[20]
  viability, T/C: 79.4%
[21]
  viability, T/C: 15%
[22]
  viability, T/C: 6.3%
[23]
  viability, T/C: 4.91%
[24]
  viability, T/C: 4.43%
[25]
  viability, T/C: 119%
[26]
  viability, T/C: 84.3%
[27]
  viability, T/C: 13.4%
[28]
  viability, T/C: 6.83%
[29]
  viability, T/C: 4.94%
[30]
  viability, T/C: 4.27%
[31]
  viability, T/C: 103%
[32]
  viability, T/C: 72.5%
[33]
  viability, T/C: 16.2%
[34]
  viability, T/C: 6.36%
[35]
  viability, T/C: 4.59%
[36]
  viability, T/C: 4.33%
